Legend:
Type in all cases: in vivo
Humulus scandens [1] = assay: Herbicidal activity test for indoor post-emergence spraying on stems and leaves; parameters: key: grade level by weed remaining vs blank control, e.g. 5 = 10.1-15%; conditions: 150 g a.i./ha, visual inspection 21 days after treatment
Outline: (§1)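 Weeds were grown in a greenhouse from seed and treated by foliar spraying after emergence, per the NY/T 1155.4-2006 method. Visual grading at 21 days: each level reflects the share of weed remaining versus the untreated blank control area.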

Digitaria sanguinalis [2] = assay: as above; parameters: key: grade level by weed remaining vs blank control, e.g. 5 = 10.1-15%; conditions: 150 g a.i./ha, visual inspection 21 days after treatment
Outline: as §1

Amaranthus retroflexus [3] = assay: as above; parameters: key: grade level by weed remaining vs blank control, e.g. 5 = 10.1-15%; conditions: 150 g a.i./ha, visual inspection 21 days after treatment
Outline: as §1

Piemarker [4] = assay: as above; parameters: key: grade level by weed remaining vs blank control, e.g. 5 = 10.1-15%; conditions: 150 g a.i./ha, visual inspection 21 days after treatment
Outline: as §1

green bristlegrass [5] = assay: as above; parameters: key: grade level by weed remaining vs blank control, e.g. 5 = 10.1-15%; conditions: 150 g a.i./ha, visual inspection 21 days after treatment
Outline: as §1

Barnyard grass [6] = assay: as above; parameters: key: grade level by weed remaining vs blank control, e.g. 5 = 10.1-15%; conditions: 150 g a.i./ha, visual inspection 21 days after treatment
Outline: as §1

Digitaria sanguinalis [7] = assay: Herbicidal activity test for indoor pre-emergence soil treatment; parameters: key: 1-9 levels; higher = more weed remaining vs blank control; conditions: 150 g a.i./ha, visual inspection 21 days after treatment
Outline: (§2)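 Compounds were formulated as 10% emulsifiable concentrates and sprayed onto the soil 24 h after sowing, at 150 g(a.i.)/ha. Soil was sandy loam (≤2% organic matter), with seeds under 0.5–2.0 cm cover, per NY/T 1155.3-2006. Visual 1–9 ratings relative to blank control were made after 21 days.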

Amaranthus retroflexus [8] = assay: as above; parameters: key: 1-9 levels; higher = more weed remaining vs blank control; conditions: 150 g a.i./ha, visual inspection 21 days after treatment
Outline: as §2

Humulus scandens [9] = assay: as above; conditions: 150 g a.i./ha, visual inspection 21 days after treatment
Outline: as §2

Acalypha australis = assay: Field test for weed control in a corn field; conditions: 150 g a.i./ha, after treatment
Outline: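 Herbicidal activity against weeds was assessed in corn plots by the GB/T 17980.42-2000 method. Corn at the 2–5 leaf stage received water sprays of 10% emulsifiable concentrates at 150 g(a.i.)/ha, four repeats per treatment over 20 m^2. A 25% mesotrione oil dispersion was the reference. Damage symptoms and severity were rated on levels 1-9 relative to weeds in the blank control area.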

nutgrass flatsedge = assay: Field test for weed control in a corn field; conditions: 150 g a.i./ha, after treatment
Outline: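 Herbicidal effect on nutgrass flatsedge was measured in a field planted with corn, using the GB/T 17980.42-2000 method. Emulsifiable concentrates (10%) in water were sprayed at 150 g(a.i.)/ha during the 2-leaf to 5-leaf corn stage, on 20 m^2 plots repeated 4 times. 25% mesotrione oil dispersion was the control agent. Activity was scored from 1 to 9 by weed remaining relative to blank control plots.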

Digitaria sanguinalis [10] = assay: Field test for weed control in a corn field; conditions: 150 g a.i./ha, after treatment
Outline: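 Field trial in a corn field following GB/T 17980.42-2000. Test compounds were formulated as 10% emulsifiable concentrates, diluted in water and sprayed post-emergence at 150 g(a.i.)/ha when corn had 2 to 5 leaves, with 4 replicates on 20 m^2 plots. Control of Digitaria sanguinalis was scored on a 1-9 scale based on weed damage relative to the untreated blank area.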

Convolvulus arvensis = assay: Field test for weed control in a corn field; conditions: 150 g a.i./ha, after treatment
Outline: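 Post-emergence herbicidal activity on Convolvulus arvensis was scored in a corn field on a 1-9 scale, based on symptoms and damage severity. Each level corresponds to the weed remaining as a percentage of the blank control area. Sprays of 10% emulsifiable concentrate at 150 g(a.i.)/ha went on at the corn 2–5 leaf stage, with four replicates of 20 m^2 per treatment.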

Portulaca oleracea = assay: Field test for weed control in a corn field; conditions: 150 g a.i./ha, after treatment
Outline: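 Post-emergence weed control was evaluated in a corn field by the GB/T 17980.42-2000 method. Emulsifiable concentrates (10%) in water were applied as sprays at 150 g(a.i.)/ha at the 2-5 leaf corn stage, in four replicate 20 m^2 plots. A 25% mesotrione oil dispersion served as control agent. Effects were graded 1-9 relative to weed remaining in blank control areas.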

Amaranthus retroflexus [11] = assay: Field test for weed control in a corn field; conditions: 150 g a.i./ha, 30 days after treatment
Outline: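 Post-emergence control of Amaranthus retroflexus was assessed in corn plots using the GB/T 17980.42-2000 method. Emulsifiable concentrates (10%) in water were applied by spraying at the 2- to 5-leaf crop stage on 20 m^2 plots, four replicates each, alongside a mesotrione 25% oil dispersion reference. Herbicidal activity was scored on 1-9 levels by weed amount relative to blank control areas.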

Chenopodium album = assay: Field test for weed control in a corn field; conditions: 150 g a.i./ha, after treatment
Outline: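 Field weed-control testing in corn, run per GB/T 17980.42-2000, scored Chenopodium album on a 1-9 level scale, where each level matches a percentage range of weed remaining relative to the blank control area. Sprays of 10% emulsifiable concentrates in water delivered 150 g(a.i.)/ha at the corn 2-leaf to 5-leaf stage on 20 m^2 plots, four replicates each. Mesotrione 25% oil dispersion served as reference.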

goosegrass = assay: Field test for weed control in a corn field; conditions: 150 g a.i./ha, after treatment
Outline: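 In this field trial in corn, run per GB/T 17980.42-2000, test agents prepared as 10% emulsifiable concentrates were applied in water as sprays at 150 g(a.i.)/ha at the 2- to 5-leaf corn stage. Each treatment covered 20 m^2 and was repeated 4 times. Goosegrass control was scored 1-9 relative to weed remaining in blank control areas.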

green bristlegrass [12] = assay: Field test for weed control in a corn field; conditions: 150 g a.i./ha, after treatment
Outline: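 Herbicidal activity against green bristlegrass was assessed in corn field plots of 20 m^2 per GB/T 17980.42-2000. Test agents, formulated as 10% emulsifiable concentrates, were applied in water at 150 g(a.i.)/ha at the corn 2 leaves to 5 leaves stage, repeated 4 times. A 25% mesotrione oil dispersion served as the control agent, and weed damage was rated on levels 1-9.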

Barnyard grass [13] = assay: Field test for weed control in a corn field; conditions: 150 g a.i./ha, 30 days after treatment
Outline: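 Herbicidal activity against barnyard grass was assessed in corn field plots of 20 m^2, with four replicates per treatment. Compounds were applied as water-diluted 10% emulsifiable concentrates at 150 g(a.i.)/ha at the 2-5 leaf corn stage, with 25% mesotrione oil dispersion as the reference agent. Damage was scored on a 1-9 scale against untreated blank plots.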

Solanum nigrum = assay: Field test for weed control in a corn field; conditions: 150 g a.i./ha, 30 days after treatment
Outline: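 In a corn field trial based on GB/T 17980.42-2000, 10% emulsifiable concentrates diluted in water were sprayed at 150 g(a.i.)/ha at the 2 to 5 leaf stage of corn. Each treatment used 20 m^2 plots and was repeated 4 times, with 25% mesotrione oil dispersion as the reference agent. Solanum nigrum damage was scored on a 1-9 scale against blank control plots.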

Piemarker [14] = assay: Herbicidal activity test for indoor pre-emergence soil treatment; parameters: key: level 1-9; higher = more weed remaining vs blank control; conditions: 150 g a.i./ha, visual inspection 21 days after treatment
Outline: as §2

green bristlegrass [15] = assay: as above; parameters: key: level 1-9; higher = more weed remaining vs blank control; conditions: 150 g a.i./ha, visual inspection 21 days after treatment
Outline: as §2

Barnyard grass [16] = assay: as above; parameters: key: level 1-9; higher = more weed remaining vs blank control; conditions: 150 g a.i./ha, visual inspection 21 days after treatment
Outline: as §2

Cyperaceae = assay: Post-emergence herbicidal activity test in a paddy field; parameters: key: level scale; higher level = more weed left vs blank control; conditions: 150 g a.i./ha (penoxsulam control 250 g(a.i.)/h)
Outline: (§3)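 Efficacy was visually estimated 15 and 30 days after spraying, grading weed coverage relative to an untreated neighbouring plot (level 2 = 0 to 2.5%, level 9 = 67.6 to 100%). Treatments were 150 g(a.i.)/ha from 10% emulsifiable concentrates applied at the 4-5 leaf rice stage, four repeats of 50 m^2 each.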

Broadleaf weed = assay: as above; parameters: key: level scale; higher level = more weed left vs blank control; conditions: 150 g a.i./ha (penoxsulam control 250 g(a.i.)/h)
Outline: as §3

Gramineae = assay: as above; parameters: key: level scale; higher level = more weed left vs blank control; conditions: 150 g a.i./ha (penoxsulam control 250 g(a.i.)/h)
Outline: as §3

## COc1ncccc1C(=O)NCc1cccc(C)c1 [Compound A85]
Humulus scandens [1]
  Herbicidal Activity Humulus scandens: 1
Digitaria sanguinalis [2]
  Herbicidal Activity Digitaria sanguinalis: 1
Amaranthus retroflexus [3]
  Herbicidal Activity Amaranthus retroflexus: 1
Piemarker [4]
  Herbicidal Activity Piemarker: 1
Green bristlegrass [5]
  Herbicidal Activity Green bristlegrass: 1
Barnyard grass [6]
  Herbicidal Activity Barnyard grass: 1
Digitaria sanguinalis [7]
  Herbicidal Activity Digitaria sanguinalis: 1
Amaranthus retroflexus [8]
  Herbicidal Activity Amaranthus retroflexus: 2 (equivalent to 0 to 2.5% of the weed in the blank control area)
Humulus scandens [9]
  Herbicidal Activity Humulus scandens: 3 (equivalent to 2.6 to 5% of the weed in the blank control area)
Acalypha australis
  Post-emergence weed control effect, Acalypha australis: 1
Nutgrass flatsedge
  Post-emergence weed control effect, Nutgrass flatsedge: 2 (equivalent to 0 to 2.5% of the weed in the blank control area)
Digitaria sanguinalis [10]
  Post-emergence weed control effect, Digitaria sanguinalis: 2 (equivalent to 0 to 2.5% of the weed in the blank control area)
Convolvulus arvensis
  Post-emergence weed control effect, Convolvulus arvensis: 1
Portulaca oleracea
  Post-emergence weed control effect, Portulaca oleracea: 1
Amaranthus retroflexus [11]
  Post-emergence weed control effect, Amaranthus retroflexus: 1
Chenopodium album
  Post-emergence weed control effect, Chenopodium album: 1
goosegrass
  Post-emergence weed control effect, Goose grass: 2 (equivalent to 0 to 2.5% of the weed in the blank control area)
Green bristlegrass [12]
  Post-emergence weed control effect, Green bristlegrass: 1
Barnyard grass [13]
  Post-emergence weed control effect, Barnyard grass: 1
Solanum nigrum
  Post-emergence weed control effect, Solanum nigrum: 2 (equivalent to 0 to 2.5% of the weed in the blank control area)
Piemarker [14]
  Herbicidal Activity Piemarker: 1
Green bristlegrass [15]
  Herbicidal Activity Green bristlegrass: 1
Barnyard grass [16]
  Herbicidal Activity Barnyard grass: 1
Cyperaceae
  Herbicidal activity 15 days after treatment Cyperaceae: 1
  Herbicidal activity 30 days after treatment Cyperaceae: 1
Broadleaf weed
  Herbicidal activity 15 days after treatment Broadleaf weed: 1
  Herbicidal activity 30 days after treatment Broadleaf weed: 1
Gramineae
  Herbicidal activity 15 days after treatment Gramineae: 2 (equivalent to 0 to 2.5% of the weed in the blank control area)
  Herbicidal activity 30 days after treatment Gramineae: 1

## COc1cccc(CNC(=O)c2cccnc2OC)c1 [Compound A87]
Humulus scandens [1]
  Herbicidal Activity Humulus scandens: 1
Digitaria sanguinalis [2]
  Herbicidal Activity Digitaria sanguinalis: 1
Amaranthus retroflexus [3]
  Herbicidal Activity Amaranthus retroflexus: 1
Piemarker [4]
  Herbicidal Activity Piemarker: 1
Green bristlegrass [5]
  Herbicidal Activity Green bristlegrass: 1
Barnyard grass [6]
  Herbicidal Activity Barnyard grass: 2 (equivalent to 0 to 2.5% of the weed in the blank control area)
Digitaria sanguinalis [7]
  Herbicidal Activity Digitaria sanguinalis: 2 (equivalent to 0 to 2.5% of the weed in the blank control area)
Amaranthus retroflexus [8]
  Herbicidal Activity Amaranthus retroflexus: 2 (equivalent to 0 to 2.5% of the weed in the blank control area)
Humulus scandens [9]
  Herbicidal Activity Humulus scandens: 3 (equivalent to 2.6 to 5% of the weed in the blank control area)
Acalypha australis
  Post-emergence weed control effect, Acalypha australis: 2 (equivalent to 0 to 2.5% of the weed in the blank control area)
Nutgrass flatsedge
  Post-emergence weed control effect, Nutgrass flatsedge: 2 (equivalent to 0 to 2.5% of the weed in the blank control area)
Digitaria sanguinalis [10]
  Post-emergence weed control effect, Digitaria sanguinalis: 2 (equivalent to 0 to 2.5% of the weed in the blank control area)
Convolvulus arvensis
  Post-emergence weed control effect, Convolvulus arvensis: 1
Portulaca oleracea
  Post-emergence weed control effect, Portulaca oleracea: 1
Amaranthus retroflexus [11]
  Post-emergence weed control effect, Amaranthus retroflexus: 1
Chenopodium album
  Post-emergence weed control effect, Chenopodium album: 1
goosegrass
  Post-emergence weed control effect, Goose grass: 2 (equivalent to 0 to 2.5% of the weed in the blank control area)
Green bristlegrass [12]
  Post-emergence weed control effect, Green bristlegrass: 1
Barnyard grass [13]
  Post-emergence weed control effect, Barnyard grass: 1
Solanum nigrum
  Post-emergence weed control effect, Solanum nigrum: 2 (equivalent to 0 to 2.5% of the weed in the blank control area)
Piemarker [14]
  Herbicidal Activity Piemarker: 2 (equivalent to 0 to 2.5% of the weed in the blank control area)
Green bristlegrass [15]
  Herbicidal Activity Green bristlegrass: 1
Barnyard grass [16]
  Herbicidal Activity Barnyard grass: 2 (equivalent to 0 to 2.5% of the weed in the blank control area)
Cyperaceae
  Herbicidal activity 15 days after treatment Cyperaceae: 1
  Herbicidal activity 30 days after treatment Cyperaceae: 1
Broadleaf weed
  Herbicidal activity 15 days after treatment Broadleaf weed: 1
  Herbicidal activity 30 days after treatment Broadleaf weed: 1
Gramineae
  Herbicidal activity 15 days after treatment Gramineae: 2 (equivalent to 0 to 2.5% of the weed in the blank control area)
  Herbicidal activity 30 days after treatment Gramineae: 1

Source: patent publication US20220330549A1, “USE OF N-BENZYLBENZAMIDE-BASED COMPOUND AS HERBICIDE” (Northwest A&F University, priority 2020, published 2022)
